In patent US20120122860A1, “SOLID FORMS OF SULFONAMIDES AND AMINO ACIDS” (Plexxikon, Inc., priority 2009, published 2012):

What was measured:
B-Raf = B-Raf (Homo sapiens, UniProt P15056); assay: Kinase activity assay, B-Raf; format: biochemical; settings: read-out: activity toward kinase B-Raf, IC50
B-Raf V600E = B-Raf V600E (Homo sapiens, UniProt P15056, V600E); assay: Kinase activity assay, B-Raf V600E; format: biochemical; settings: read-out: activity toward kinase B-Raf V600E, IC50
Kdr = Kdr (Homo sapiens, UniProt P35968); assay: Kinase activity assay, Kdr
Src = Src (Homo sapiens, UniProt P12931); assay: Kinase activity assay, Src
TrkA = TrkA (Homo sapiens, UniProt P04629); assay: Kinase activity assay, TrkA
C-Raf = C-Raf (Homo sapiens, UniProt P04049); assay: Kinase activity assay, C-Raf
Fms = Fms (Homo sapiens, UniProt P07333); assay: Kinase activity assay, Fms
Kit = Kit (Homo sapiens, UniProt P10721); assay: Kinase activity assay, Kit
Flt1 = Flt1 (Homo sapiens, UniProt P17948); assay: Kinase activity assay, Flt1
PI3Kα = PI3Kα (Homo sapiens, UniProt P42336); assay: Kinase activity assay, PI3Kα
MAP4K4 = MAP4K4 (Homo sapiens, UniProt O95819); assay: Kinase activity assay, MAP4K4
Btk = Btk (Homo sapiens, UniProt Q06187); assay: Kinase activity assay, Btk
TEC = molecular target: T1, TEC (Homo sapiens, UniProt P42680); assay: Kinase activity assay, TEC
T1 sequence (P42680 1-631): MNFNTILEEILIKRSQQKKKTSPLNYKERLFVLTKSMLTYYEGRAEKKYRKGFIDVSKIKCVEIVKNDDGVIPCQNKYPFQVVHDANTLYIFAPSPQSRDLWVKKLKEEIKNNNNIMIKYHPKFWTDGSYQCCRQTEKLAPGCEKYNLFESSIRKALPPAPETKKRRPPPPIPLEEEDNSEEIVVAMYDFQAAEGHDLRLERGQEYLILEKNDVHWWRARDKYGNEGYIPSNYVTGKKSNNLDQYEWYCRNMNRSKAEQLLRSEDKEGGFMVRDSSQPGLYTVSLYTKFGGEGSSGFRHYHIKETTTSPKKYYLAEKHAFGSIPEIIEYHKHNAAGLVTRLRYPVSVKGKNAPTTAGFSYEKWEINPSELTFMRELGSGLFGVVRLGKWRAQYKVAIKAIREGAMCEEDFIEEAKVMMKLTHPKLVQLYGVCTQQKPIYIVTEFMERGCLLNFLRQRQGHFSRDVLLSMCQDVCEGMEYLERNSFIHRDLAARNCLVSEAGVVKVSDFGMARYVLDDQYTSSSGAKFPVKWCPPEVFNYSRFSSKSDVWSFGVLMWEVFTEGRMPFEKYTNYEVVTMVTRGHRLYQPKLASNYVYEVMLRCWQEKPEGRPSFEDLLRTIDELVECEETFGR

A-Raf = molecular target: T2, A-Raf (Homo sapiens, UniProt P10398); assay: Kinase activity assay, A-Raf
T2 sequence (P10398 1-606): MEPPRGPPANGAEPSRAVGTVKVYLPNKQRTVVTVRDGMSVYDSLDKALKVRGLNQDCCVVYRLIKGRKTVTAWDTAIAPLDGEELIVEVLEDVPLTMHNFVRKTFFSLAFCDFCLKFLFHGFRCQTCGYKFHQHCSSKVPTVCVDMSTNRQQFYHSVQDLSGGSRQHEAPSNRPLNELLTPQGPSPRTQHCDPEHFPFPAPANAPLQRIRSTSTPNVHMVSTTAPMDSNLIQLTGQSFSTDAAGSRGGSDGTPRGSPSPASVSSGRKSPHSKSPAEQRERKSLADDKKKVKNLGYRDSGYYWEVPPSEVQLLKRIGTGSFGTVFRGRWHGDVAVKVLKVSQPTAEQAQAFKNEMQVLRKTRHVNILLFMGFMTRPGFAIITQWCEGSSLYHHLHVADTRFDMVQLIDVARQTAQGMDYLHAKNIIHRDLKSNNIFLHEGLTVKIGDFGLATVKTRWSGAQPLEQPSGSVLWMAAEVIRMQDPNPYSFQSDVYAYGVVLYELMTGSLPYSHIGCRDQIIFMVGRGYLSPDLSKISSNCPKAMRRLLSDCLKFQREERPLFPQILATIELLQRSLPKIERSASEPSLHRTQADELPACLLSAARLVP

Sequence of Kit (P10721 26-976): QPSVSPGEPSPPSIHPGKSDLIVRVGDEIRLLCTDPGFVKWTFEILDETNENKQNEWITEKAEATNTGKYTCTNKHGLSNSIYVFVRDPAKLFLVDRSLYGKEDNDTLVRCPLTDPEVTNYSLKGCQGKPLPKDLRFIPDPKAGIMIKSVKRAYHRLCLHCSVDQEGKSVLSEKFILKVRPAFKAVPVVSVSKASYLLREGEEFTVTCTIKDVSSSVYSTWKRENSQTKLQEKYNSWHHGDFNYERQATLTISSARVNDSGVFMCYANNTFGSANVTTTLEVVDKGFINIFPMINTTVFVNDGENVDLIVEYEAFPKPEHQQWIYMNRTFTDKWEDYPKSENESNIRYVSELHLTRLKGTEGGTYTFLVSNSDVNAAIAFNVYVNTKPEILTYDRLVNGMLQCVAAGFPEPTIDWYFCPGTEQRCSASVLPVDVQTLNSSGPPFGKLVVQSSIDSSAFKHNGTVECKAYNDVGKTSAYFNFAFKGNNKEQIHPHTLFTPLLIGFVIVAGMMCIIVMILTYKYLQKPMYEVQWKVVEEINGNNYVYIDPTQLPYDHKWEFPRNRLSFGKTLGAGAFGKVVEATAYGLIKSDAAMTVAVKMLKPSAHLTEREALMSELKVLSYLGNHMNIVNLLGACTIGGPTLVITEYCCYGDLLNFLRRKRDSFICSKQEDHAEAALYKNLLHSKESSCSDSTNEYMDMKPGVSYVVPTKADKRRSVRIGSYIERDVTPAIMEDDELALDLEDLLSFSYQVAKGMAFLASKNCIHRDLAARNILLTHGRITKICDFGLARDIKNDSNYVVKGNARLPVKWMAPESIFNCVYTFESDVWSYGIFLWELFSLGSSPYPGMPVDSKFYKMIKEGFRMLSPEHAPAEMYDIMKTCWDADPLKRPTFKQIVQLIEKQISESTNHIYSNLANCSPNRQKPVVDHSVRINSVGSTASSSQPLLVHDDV
Sequence of C-Raf (P04049 whole entry): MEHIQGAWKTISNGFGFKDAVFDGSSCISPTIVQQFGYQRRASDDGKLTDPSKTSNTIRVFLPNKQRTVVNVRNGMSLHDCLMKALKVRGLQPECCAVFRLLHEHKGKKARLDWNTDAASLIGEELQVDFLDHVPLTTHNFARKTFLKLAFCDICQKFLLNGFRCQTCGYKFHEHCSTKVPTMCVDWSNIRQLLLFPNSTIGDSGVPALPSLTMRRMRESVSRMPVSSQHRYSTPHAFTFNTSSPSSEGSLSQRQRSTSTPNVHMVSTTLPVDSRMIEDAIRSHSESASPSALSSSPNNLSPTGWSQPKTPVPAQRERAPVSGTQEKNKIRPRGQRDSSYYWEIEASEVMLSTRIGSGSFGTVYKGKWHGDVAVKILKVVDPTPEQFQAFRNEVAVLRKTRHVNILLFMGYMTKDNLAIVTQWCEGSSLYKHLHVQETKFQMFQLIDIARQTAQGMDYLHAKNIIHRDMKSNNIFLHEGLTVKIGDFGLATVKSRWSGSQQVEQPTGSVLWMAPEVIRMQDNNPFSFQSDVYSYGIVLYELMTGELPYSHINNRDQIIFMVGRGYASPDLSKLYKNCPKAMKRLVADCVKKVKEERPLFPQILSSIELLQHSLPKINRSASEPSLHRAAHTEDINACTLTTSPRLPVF
Sequence of TrkA (P04629 33-796): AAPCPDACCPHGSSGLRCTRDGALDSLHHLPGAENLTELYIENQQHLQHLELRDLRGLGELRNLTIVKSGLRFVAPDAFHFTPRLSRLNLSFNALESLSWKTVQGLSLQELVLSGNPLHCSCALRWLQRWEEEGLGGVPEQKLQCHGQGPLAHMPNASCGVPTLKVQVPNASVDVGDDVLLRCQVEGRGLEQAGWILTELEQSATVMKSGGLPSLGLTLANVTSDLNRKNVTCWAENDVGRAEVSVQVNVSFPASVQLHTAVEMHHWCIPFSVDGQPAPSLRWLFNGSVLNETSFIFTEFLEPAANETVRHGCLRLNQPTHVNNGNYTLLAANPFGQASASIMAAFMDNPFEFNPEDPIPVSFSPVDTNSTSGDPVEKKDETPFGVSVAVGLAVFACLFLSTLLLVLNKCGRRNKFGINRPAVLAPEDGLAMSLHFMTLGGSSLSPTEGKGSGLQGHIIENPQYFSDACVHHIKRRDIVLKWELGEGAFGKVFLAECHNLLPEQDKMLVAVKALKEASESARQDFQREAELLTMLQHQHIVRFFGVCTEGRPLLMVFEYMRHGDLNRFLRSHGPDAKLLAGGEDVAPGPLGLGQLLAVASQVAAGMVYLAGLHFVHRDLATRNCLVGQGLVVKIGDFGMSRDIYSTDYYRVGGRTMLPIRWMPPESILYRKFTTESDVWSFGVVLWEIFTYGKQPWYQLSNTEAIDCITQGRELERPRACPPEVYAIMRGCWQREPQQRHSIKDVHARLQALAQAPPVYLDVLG
Sequence of PI3Kα (P42336 whole entry): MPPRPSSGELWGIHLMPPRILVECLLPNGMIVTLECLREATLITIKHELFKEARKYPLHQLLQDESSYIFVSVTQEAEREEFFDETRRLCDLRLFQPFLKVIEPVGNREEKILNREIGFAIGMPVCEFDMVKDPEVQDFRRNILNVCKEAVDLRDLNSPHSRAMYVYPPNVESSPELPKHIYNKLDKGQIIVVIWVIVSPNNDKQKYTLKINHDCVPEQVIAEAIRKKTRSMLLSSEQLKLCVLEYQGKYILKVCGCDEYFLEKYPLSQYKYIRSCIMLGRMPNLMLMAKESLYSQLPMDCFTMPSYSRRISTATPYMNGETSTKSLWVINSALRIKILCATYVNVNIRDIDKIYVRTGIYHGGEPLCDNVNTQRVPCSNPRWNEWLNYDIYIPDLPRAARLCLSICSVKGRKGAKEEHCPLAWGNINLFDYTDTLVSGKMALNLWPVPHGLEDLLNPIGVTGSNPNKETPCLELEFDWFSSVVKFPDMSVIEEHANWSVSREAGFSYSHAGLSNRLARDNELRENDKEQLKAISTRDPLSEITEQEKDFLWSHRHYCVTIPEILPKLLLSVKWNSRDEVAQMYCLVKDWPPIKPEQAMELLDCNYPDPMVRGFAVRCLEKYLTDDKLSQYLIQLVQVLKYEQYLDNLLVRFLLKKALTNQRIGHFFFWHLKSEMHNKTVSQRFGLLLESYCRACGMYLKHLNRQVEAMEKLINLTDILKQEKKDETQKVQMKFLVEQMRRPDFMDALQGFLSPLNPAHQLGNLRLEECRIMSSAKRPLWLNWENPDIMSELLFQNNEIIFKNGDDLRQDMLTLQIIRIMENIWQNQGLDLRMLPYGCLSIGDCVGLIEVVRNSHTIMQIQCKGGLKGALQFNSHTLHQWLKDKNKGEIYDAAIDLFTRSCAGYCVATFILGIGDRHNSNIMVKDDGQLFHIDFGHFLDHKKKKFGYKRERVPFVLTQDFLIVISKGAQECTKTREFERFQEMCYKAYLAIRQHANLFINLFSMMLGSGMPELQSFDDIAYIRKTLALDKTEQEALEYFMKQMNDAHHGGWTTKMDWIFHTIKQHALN
Sequence of PI3Kα (P27986 whole entry partner): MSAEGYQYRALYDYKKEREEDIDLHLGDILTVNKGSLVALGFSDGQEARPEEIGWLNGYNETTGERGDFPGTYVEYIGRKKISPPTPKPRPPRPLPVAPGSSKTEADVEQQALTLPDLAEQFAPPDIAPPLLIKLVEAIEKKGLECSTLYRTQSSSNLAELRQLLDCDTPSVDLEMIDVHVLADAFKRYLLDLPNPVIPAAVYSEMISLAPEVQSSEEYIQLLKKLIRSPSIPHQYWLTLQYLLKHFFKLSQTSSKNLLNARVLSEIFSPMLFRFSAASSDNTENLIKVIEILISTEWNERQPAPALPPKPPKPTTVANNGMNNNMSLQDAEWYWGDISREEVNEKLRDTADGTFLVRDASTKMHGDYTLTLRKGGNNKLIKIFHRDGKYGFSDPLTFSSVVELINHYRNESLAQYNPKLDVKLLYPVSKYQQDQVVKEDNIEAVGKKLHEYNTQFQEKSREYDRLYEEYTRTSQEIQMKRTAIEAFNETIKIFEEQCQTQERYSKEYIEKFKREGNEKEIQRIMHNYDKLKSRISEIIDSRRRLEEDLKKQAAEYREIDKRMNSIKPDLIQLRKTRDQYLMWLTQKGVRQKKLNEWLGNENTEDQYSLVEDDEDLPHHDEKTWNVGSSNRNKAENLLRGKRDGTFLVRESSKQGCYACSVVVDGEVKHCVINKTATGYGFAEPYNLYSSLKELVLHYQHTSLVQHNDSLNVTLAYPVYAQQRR
Sequence of Src (P12931 whole entry): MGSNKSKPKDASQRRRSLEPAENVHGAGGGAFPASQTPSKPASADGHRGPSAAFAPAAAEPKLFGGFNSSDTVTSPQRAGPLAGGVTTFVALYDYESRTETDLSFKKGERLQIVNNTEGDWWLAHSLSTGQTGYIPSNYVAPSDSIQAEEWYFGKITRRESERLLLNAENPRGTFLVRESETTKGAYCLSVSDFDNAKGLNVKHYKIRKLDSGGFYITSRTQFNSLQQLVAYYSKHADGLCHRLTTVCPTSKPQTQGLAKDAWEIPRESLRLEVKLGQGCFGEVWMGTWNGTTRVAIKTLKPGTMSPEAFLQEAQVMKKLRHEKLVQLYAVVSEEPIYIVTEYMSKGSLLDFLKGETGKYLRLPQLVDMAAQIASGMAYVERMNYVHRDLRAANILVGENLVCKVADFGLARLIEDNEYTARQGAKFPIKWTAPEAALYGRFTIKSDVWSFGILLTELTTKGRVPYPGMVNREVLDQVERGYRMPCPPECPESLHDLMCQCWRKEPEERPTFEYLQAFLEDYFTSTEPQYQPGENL

| Compound | IC50 (B-Raf) | IC50 (B-Raf V600E) | IC50 (Kdr) | IC50 (Src) | IC50 (TrkA) | IC50 (C-Raf) | IC50 (Fms) | IC50 (Kit) | IC50 (Flt1) | IC50 (PI3Kα) | IC50 (MAP4K4) | IC50 (Btk) | IC50 (TEC) | IC50 (A-Raf) |
| --- | --- | --- | --- | --- | --- | --- | --- | --- | --- | --- | --- | --- | --- | --- |
| COc1cnc2[nH]cc(C(=O)c3c(F)ccc(NS(=O)(=O)c4ncn[nH]4)c3F)c2c1 [P-2061, 2H-[1,2,4]Triazole-3-sulfonic acid [2,4-difluoro-3-(5-methoxy-1H-pyrrolo[2,3-b]pyridine-3-carbonyl)-phenyl]-amide] | – | ≤ 10 µM | ≤ 10 µM | ≤ 10 µM | ≤ 10 µM | ≤ 10 µM | – | – | – | – | ≤ 10 µM | – | – | ≤ 10 µM |
| CCCS(=O)(=O)Nc1ccc(F)c(C(=O)c2c[nH]c3ncc(-c4cn[nH]c4)cc23)c1F [P-2174, Propane-1-sulfonic acid {2,4-difluoro-3-[5-(1H-pyrazol-4-yl)-1H-pyrrolo[2,3-b]pyridine-3-carbonyl]-phenyl}-amide] | ≤ 10 µM | ≤ 10 µM | ≤ 10 µM | ≤ 10 µM | ≤ 10 µM | – | ≤ 10 µM | ≤ 10 µM | – | ≤ 10 µM | – | ≤ 10 µM | ≤ 10 µM | – |
| CCCS(=O)(=O)Nc1ccc(F)c(C(=O)c2c[nH]c3ncc(-c4ccc(N)nc4)cc23)c1F [P-2214, Propane-1-sulfonic acid {3-[5-(6-amino-pyridin-3-yl)-1H-pyrrolo[2,3-b]pyridine-3-carbonyl]-2,4-difluoro-phenyl}-amide] | ≤ 10 µM | ≤ 10 µM | ≤ 10 µM | ≤ 10 µM | – | ≤ 10 µM | ≤ 10 µM | ≤ 10 µM | ≤ 10 µM | ≤ 10 µM | ≤ 10 µM | ≤ 10 µM | ≤ 10 µM | – |
| Cn1cc(-c2cnc3[nH]cc(C(=O)c4cc(NS(=O)(=O)C5CCCCC5)ccc4F)c3c2)cn1 [P-2434, Cyclohexanesulfonic acid {4-fluoro-3-[5-(1-methyl-1H-pyrazol-4-yl)-1H-pyrrolo[2,3-b]pyridine-3-carbonyl]-phenyl}-amide] | ≤ 10 µM | ≤ 10 µM | ≤ 10 µM | ≤ 10 µM | – | ≤ 10 µM | ≤ 10 µM | ≤ 10 µM | ≤ 10 µM | – | ≤ 10 µM | ≤ 10 µM | ≤ 10 µM | – |
| O=C(c1c(F)ccc(NS(=O)(=O)C(F)(F)F)c1F)c1c[nH]c2ncc(-c3ccc(F)cc3)cc12 [P-2344, N-{2,4-Difluoro-3-[5-(4-fluoro-phenyl)-1H-pyrrolo[2,3-b]pyridine-3-carbonyl]-phenyl}-C,C,C-trifluoro-methanesulfonamide] | ≤ 10 µM | ≤ 10 µM | ≤ 10 µM | ≤ 10 µM | ≤ 10 µM | – | ≤ 10 µM | ≤ 10 µM | – | – | – | – | – | – |
| CCCS(=O)(=O)Nc1ccc(F)c(C(=O)c2c[nH]c3ncc(-c4ccn[nH]4)cc23)c1F [P-2176] | ≤ 10 µM | ≤ 10 µM | ≤ 10 µM | ≤ 10 µM | ≤ 10 µM | – | ≤ 10 µM | ≤ 10 µM | – | – | ≤ 10 µM | ≤ 10 µM | – | – |
| CCCS(=O)(=O)Nc1ccc(F)c(C(=O)c2c[nH]c3ncc(C#CCOC)cc23)c1F [P-2239, Propane-1-sulfonic acid {2,4-difluoro-3-[5-(3-methoxy-prop-1-ynyl)-1H-pyrrolo[2,3-b]pyridine-3-carbonyl]-phenyl}-amide] | ≤ 10 µM | ≤ 10 µM | ≤ 10 µM | ≤ 10 µM | ≤ 10 µM | ≤ 10 µM | ≤ 10 µM | ≤ 10 µM | – | – | ≤ 10 µM | – | – | ≤ 10 µM |
| CCCS(=O)(=O)Nc1ccc(F)c(C(=O)c2c[nH]c3ncc(CCCOC)cc23)c1F [P-2240, propane-1-sulfonic acid {2,4-difluoro-3-[5-(3-methoxy-propyl)-1H-pyrrolo[2,3-b]pyridine-3-carbonyl]-phenyl}-amide] | ≤ 10 µM | ≤ 10 µM | ≤ 10 µM | ≤ 10 µM | ≤ 10 µM | ≤ 10 µM | – | ≤ 10 µM | – | – | ≤ 10 µM | – | – | ≤ 10 µM |

Other lines, results leading:

| IC50 (B-Raf) | IC50 (B-Raf V600E) | IC50 (Kdr) | IC50 (Src) | IC50 (TrkA) | IC50 (C-Raf) | IC50 (Fms) | IC50 (Kit) | IC50 (Flt1) | IC50 (PI3Kα) | IC50 (MAP4K4) | IC50 (Btk) | IC50 (TEC) | IC50 (A-Raf) | Compound |
| --- | --- | --- | --- | --- | --- | --- | --- | --- | --- | --- | --- | --- | --- | --- |
| ≤ 10 µM | ≤ 10 µM | ≤ 10 µM | ≤ 10 µM | ≤ 10 µM | ≤ 10 µM | – | – | – | – | – | – | – | – | COc1ccnc2[nH]cc(C(=O)c3cccc(NS(=O)(=O)c4ccc(C(F)(F)F)cc4)c3F)c12 [P-2060, N-[2-Fluoro-3-(4-methoxy-1H-pyrrolo[2,3-b]pyridine-3-carbonyl)-phenyl]-4-trifluoromethyl-benzenesulfonamide] |
| ≤ 10 µM | ≤ 10 µM | ≤ 10 µM | ≤ 10 µM | – | ≤ 10 µM | ≤ 10 µM | ≤ 10 µM | ≤ 10 µM | ≤ 10 µM | ≤ 10 µM | – | – | – | CCCS(=O)(=O)Nc1ccc(F)c(C(=O)c2c[nH]c3ncc(-c4ccc(NC(C)=O)nc4)cc23)c1F [P-2193, N-(5-{3-[2,6-Difluoro-3-(propane-1-sulfonylamino)-benzoyl]-1H-pyrrolo[2,3-b]pyridin-5-yl}-pyridin-2-yl)-acetamide] |
| ≤ 10 µM | ≤ 10 µM | ≤ 10 µM | ≤ 10 µM | ≤ 10 µM | – | – | ≤ 10 µM | – | – | – | ≤ 10 µM | – | – | Cn1cc(-c2cnc3[nH]cc(C(=O)c4c(F)ccc(NS(=O)(=O)C(F)(F)F)c4F)c3c2)cn1 [P-2345, N-{2,4-Difluoro-3-[5-(1-methyl-1H-pyrazol-4-yl)-1H-pyrrolo[2,3-b]pyridine-3-carbonyl]-phenyl}-C,C,C-trifluoro-methanesulfonamide] |
| ≤ 10 µM | ≤ 10 µM | ≤ 10 µM | ≤ 10 µM | ≤ 10 µM | ≤ 10 µM | ≤ 10 µM | ≤ 10 µM | – | – | – | ≤ 10 µM | – | – | CCCS(=O)(=O)Nc1ccc(F)c(C(=O)c2c[nH]c3ncc(-c4ccc(S(=O)(=O)NC5CC5)cc4)cc23)c1F [P-2168, N-Cyclopropyl-4-{3-[2,6-difluoro-3-(propane-1-sulfonylamino)-benzoyl]-1H-pyrrolo[2,3-b]pyridin-5-yl}-benzenesulfonamide] |
| ≤ 10 µM | ≤ 10 µM | ≤ 10 µM | ≤ 10 µM | ≤ 10 µM | – | ≤ 10 µM | ≤ 10 µM | ≤ 10 µM | – | – | ≤ 10 µM | ≤ 10 µM | – | CCCCS(=O)(=O)Nc1ccc(F)c(C(=O)c2c[nH]c3ncc(-c4cnn(C)c4)cc23)c1F [P-2302, Butane-1-sulfonic acid {2,4-difluoro-3-[5-(1-methyl-1H-pyrazol-4-yl)-1H-pyrrolo[2,3-b]pyridine-3-carbonyl]-phenyl}-amide] |
| ≤ 10 µM | ≤ 10 µM | ≤ 10 µM | ≤ 10 µM | ≤ 10 µM | – | ≤ 10 µM | ≤ 10 µM | – | – | ≤ 10 µM | – | – | – | CCCCS(=O)(=O)Nc1ccc(F)c(C(=O)c2c[nH]c3ncc(-c4ccc(F)cc4)cc23)c1F [P-2301, Butane-1-sulfonic acid {2,4-difluoro-3-[5-(4-fluoro-phenyl)-1H-pyrrolo[2,3-b]pyridine-3-carbonyl]-phenyl}-amide] |
